Assay results reported in patent US10167262B2, “Herbicidal substituted 3-arylpyrazoles” (FMC CORPORATION, priority 2014, dated 2019).
Like-named read-outs stand apart in the source and are kept apart here.

What was measured:
Experiment in all cases: Test C pre-/postemergence greenhouse test, plant response rating 0-100;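 as to Plant response rating (0 to 100), Blackgrass: 0 is no effect and 100 is complete control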
Type in all cases: in vivo
[1] = test system: corn (Zea mays); settings: Zea mays; for Corn plant response rating (crop injury, 0 = no effect, 100 = complete kill) at 250 g/ha: 250 g ai/ha
Summary of the method: (§1)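 After treatment, pots stay in the greenhouse 13–15 days before each species is compared with untreated controls and given a 0–100 visual score. Preemergence seeds are in loam blended with sand; postemergence plants, 1–4 leaves, are in peat-based medium.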

[2] = test system: pigweed (Amaranthus retroflexus); settings: Amaranthus retroflexus; for pest or weed control at 62 g/ha: 62 g ai/ha; for pest or weed control at 250 g/ha: 250 g ai/ha
Summary of the method: as §1

[3] = test system: yellow nutsedge (Cyperus esculentus); settings: Cyperus; for pest or weed control at 62 g/ha: 62 g ai/ha; for pest or weed control at 125 g/ha: 125 g ai/ha; for pest or weed control at 250 g/ha: 250 g ai/ha
Summary of the method: as §1

[4] = test system: soybean (Glycine max); settings: Glycine max; for plant injury at 62 g/ha: 62 g ai/ha; for plant injury at 125 g/ha: 125 g ai/ha; for plant injury at 250 g/ha: 250 g ai/ha
Summary of the method: as §1

[5] = test system: giant foxtail (Setaria faberii); settings: Setaria faberi; for pest or weed control at 62 g/ha: 62 g ai/ha; for pest or weed control at 125 g/ha: 125 g ai/ha; for pest or weed control at 250 g/ha: 250 g ai/ha
Summary of the method: as §1

[6] = test system: oilseed rape (Brassica napus); settings: Preemergence
Summary of the method: as §1

[7] = test system: blackgrass (Alopecurus myosuroides); settings: Alopecurus myosuroides, post-emergence, Postemergence, read-out: Plant response rating (0 to 100), Blackgrass;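 also: 0 is no effect and 100 is complete control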
Summary of the method: as §1

[8] = post-emergence, Postemergence, scale 0 to 100
[9] = pre-emergence, Preemergence, 500 g ai/ha
[10] = post-emergence, Postemergence, read-out: Plant response rating (0 to 100), Nutsedge, Yellow
[11] = pre-emergence, Preemergence, read-out: Plant response rating, Nutsedge, Yellow
[12] = post-emergence, Postemergence, read-out: Plant response rating (0 to 100), Soybean
[13] = pre-emergence, Preemergence, read-out: Plant response rating, Soybean
[14] = post-emergence, Postemergence, read-out: Plant response rating (0 to 100), Foxtail, Giant
[15] = pre-emergence, Preemergence, read-out: Plant response rating, Foxtail, Giant

## Cn1cc(C(=O)c2ccccc2)c(-c2cc(Cl)cc(Cl)c2)n1 [Compound 54, [3-(3,5-dichlorophenyl)-1-methyl-1H-pyrazol-4-yl]phenylmethanone]
[1]; post-emergence, Postemergence, 31 g ai/ha
  plant injury at 31 g/ha: 0%
[1]; post-emergence, Postemergence, 62 g ai/ha
  plant injury at 62 g/ha: 0%
[1]; post-emergence, Postemergence, 125 g ai/ha
  plant injury at 125 g/ha: 0%
[1]; [8]
  Corn plant response rating (crop injury, 0 = no effect, 100 = complete kill) at 250 g/ha: 0%
[1]; pre-emergence, Preemergence, 62 g ai/ha
  Corn plant response rating (crop injury, 0 = no effect, 100 = complete kill) at 62 g/ha: 0%
[1]; pre-emergence, Preemergence, 125 g ai/ha
  Corn plant response rating (crop injury, 0 = no effect, 100 = complete kill) at 125 g/ha: 0%
[1]; pre-emergence, Preemergence
  Corn plant response rating (crop injury, 0 = no effect, 100 = complete kill) at 250 g/ha: 10%
[1]; [9]
  Corn plant response rating (crop injury, 0 = no effect, 100 = complete kill) at 500 g/ha: 10%
[2]; post-emergence, Postemergence, read-out: Plant response rating (0 to 100), Pigweed
  pest or weed control at 62 g/ha: 98%
[2]; post-emergence, Postemergence, 125 g ai/ha, read-out: Plant response rating (0 to 100), Pigweed
  pest or weed control at 125 g/ha: 100%
[2]; [8]
  pest or weed control at 250 g/ha: 100%
[2]; pre-emergence, Preemergence, read-out: Plant response rating, Pigweed
  pest or weed control at 62 g/ha: 90%
[2]; pre-emergence, Preemergence
  pest or weed control at 250 g/ha: 95%
[2]; [9]
  pest or weed control at 500 g/ha: 95%
[3]; [10]
  pest or weed control at 62 g/ha: 0%
  pest or weed control at 125 g/ha: 0%
[3]; [8]
  pest or weed control at 250 g/ha: 0%
[3]; [11]
  pest or weed control at 62 g/ha: 0%
  pest or weed control at 125 g/ha: 0%
[3]; pre-emergence, Preemergence
  pest or weed control at 250 g/ha: 0%
[3]; [9]
  pest or weed control at 500 g/ha: 25%
[4]; [12]
  plant injury at 62 g/ha: 0%
  plant injury at 125 g/ha: 0%
[4]; [8]
  plant injury at 250 g/ha: 0%
[4]; [13]
  plant injury at 62 g/ha: 0%
  plant injury at 125 g/ha: 0%
[4]; pre-emergence, Preemergence
  plant injury at 250 g/ha: 0%
[4]; [9]
  plant injury at 500 g/ha: 0%
[5]; post-emergence, Postemergence, 31 g ai/ha, read-out: Plant response rating (0 to 100), Foxtail, Giant
  pest or weed control at 31 g/ha: 0%
[5]; [14]
  pest or weed control at 62 g/ha: 0%
  pest or weed control at 125 g/ha: 5%
[5]; [8]
  pest or weed control at 250 g/ha: 5%
[5]; [15]
  pest or weed control at 62 g/ha: 0%
  pest or weed control at 125 g/ha: 0%
[5]; pre-emergence, Preemergence
  pest or weed control at 250 g/ha: 0%
[5]; [9]
  pest or weed control at 500 g/ha: 0%
[6]; 62 g ai/ha
  Plant response rating, Oilseed Rape: 0
[6]; 125 g ai/ha
  Plant response rating, Oilseed Rape: 0
[6]; 250 g ai/ha
  Plant response rating, Oilseed Rape: 0
[6]; 500 g ai/ha
  Plant response rating, Oilseed Rape: 5
[7]; 31 g ai/ha
  pest or weed control at 31 g/ha: 0%
[7]; 62 g ai/ha
  pest or weed control at 62 g/ha: 0%
[7]; 125 g ai/ha
  pest or weed control at 125 g/ha: 0%
